What was measured:
rape = test: Test B pre/postemergence rape; format: in vivo, Brassica napus
Method in brief: (§1)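 Response is a visual 0-to-10 score relative to untreated plants, where 0 means no effect and 10 means complete control, taken twelve to sixteen days after application. Treatments went onto soil at planting and onto foliage of 1- to 4-leaf plants, using a surfactant-containing non-phytotoxic solvent.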

duck salad = test: Test B flood test duck salad; format: in vivo, Heteranthera limosa
Method in brief: (§2)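 Plants were grown to the 2-leaf stage before treatment with test chemical, then held in a greenhouse for twelve to sixteen days. Injury was visually rated against untreated controls on a 0–10 scale, where 0 is no effect and 10 is complete control.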

wheat = test: Test B pre/postemergence wheat; format: in vivo, Triticum aestivum; conditions: for Plant response rating, Wheat: Rate 250 g/ha
Method in brief: as §1

corn = test: Test B pre/postemergence corn; format: in vivo, Zea mays
Method in brief: as §1

sugar beet = test: Test B pre/postemergence sugar beet; format: in vivo, Beta vulgaris; conditions: for Plant response rating, Sugarbeets: Rate 250 g/ha
Method in brief: as §1

giant foxtail = test: Test B pre/postemergence giant foxtail; format: in vivo, Setaria faberii
Method in brief: as §1

purple nutsedge = test: Test B pre/postemergence purple nutsedge; format: in vivo, Cyperus rotundus
Method in brief: as §1

wild oat = test: Test B pre/postemergence wild oat; format: in vivo, Avena fatua; conditions: for Plant response rating, Wild oats: Rate 250 g/ha
Method in brief: as §1

morningglory = test: Test B pre/postemergence morningglory; format: in vivo, Ipomoea hederacea
Method in brief: as §1

blackgrass = test: Test B pre/postemergence blackgrass; format: in vivo, Alopecurus myosuroides
Method in brief: as §1

velvetleaf = test: Test B pre/postemergence velvetleaf; format: in vivo, Abutilon theophrasti; conditions: for Plant response rating, Velvetleaf: Rate 250 g/ha
Method in brief: as §1

smallflower flatsedge = test: Test B flood test smallflower flatsedge; format: in vivo, Cyperus difformis
Method in brief: as §2

cocklebur = test: Test B pre/postemergence cocklebur; format: in vivo, Xanthium strumarium
Method in brief: as §1

crabgrass = test: Test B pre/postemergence crabgrass; format: in vivo, Digitaria sanguinalis
Method in brief: as §1

surinam grass = test: Test B pre/postemergence surinam grass; format: in vivo, Brachiaria decumbens
Method in brief: as §1

soybean = test: Test B pre/postemergence soybean; format: in vivo, Glycine max
Method in brief: as §1

[1] = Postemergence, Rate 62 g/ha, scale 0 to 10, 0 is no effect, 10 is complete control
[2] = Postemergence, Rate 125 g/ha, scale of 0 to 10 where 0 is no effect and 10 is complete control
[3] = Postemergence, Rate 250 g/ha, scale 0 to 10, 0 no effect, 10 complete control
[4] = Preemergence, Rate 62 g/ha, scale 0 to 10 (0 no effect, 10 complete control)
[5] = Preemergence, Rate 125 g/ha, scale 0 to 10 (0 no effect, 10 complete control)
[6] = Preemergence, Rate 250 g/ha, scale of 0 to 10 where 0 is no effect and 10 is complete control
[7] = Preemergence, Rate 500 g/ha, scale 0 (no effect) to 10 (complete control)
[8] = Rate 500 g/ha, Postemergence, scale 0 to 10, 0 no effect, 10 complete control
[9] = Postemergence (flood test species), Rate 125 g/ha, scale of 0 to 10 where 0 is no effect and 10 is complete control
[10] = Rate 250 g/ha, headed Pre-emergence (flood test species), scale 0 to 10 (0 no effect, 10 complete control)
[11] = Rate 500 g/ha, headed Pre-emergence (flood test species), scale 0 to 10 (0 no effect, 10 complete control)
[12] = Rate 500 g/ha, listed under Postemergence (flood test species), scale 0 to 10, 0 no effect, 10 complete control
[13] = Rate 2000 g/ha, Pre-emergence (as headed), scale 0 to 10
[14] = Preemergence, Rate 125 g/ha, 0 is no effect, 10 is complete control
[15] = Preemergence, scale of 0 to 10 where 0 is no effect and 10 is complete control
[16] = Postemergence, scale 0 to 10, 0 is no effect, 10 is complete control

CC(C)N(C(=O)n1oc(=O)n(Cc2ccccc2)c1=O)c1ccccc1 [Compound 94]
Rape plant response rating (rape; [1]): 1
Rape plant response rating (rape; [2]): 2
Rape plant response rating (rape; [3]): 2
Rape plant response rating (rape; [4]): 0
Plant response rating, Rape (rape; [5]): 0
Plant response rating, Rape (rape; [6]): 2
Rape plant response rating (rape; [7]): 5
Rape plant response rating (rape; [8]): 3
Ducksalad plant response rating (duck salad; [9]): 0
Ducksalad plant response rating (duck salad; [1]): 0
Ducksalad plant response rating (duck salad; [10]): 0
Plant response rating, Ducksalad (duck salad; [11]): 0
Ducksalad plant response rating (duck salad; [12]): 2
Ducksalad plant response rating (duck salad; Rate 1000 g/ha, Pre-emergence (as headed), scale 0 to 10): 0
Ducksalad plant response rating (duck salad; [13]): 0
Ducksalad plant response rating (duck salad; flood test, listed under Postemergence, Rate 250 g/ha, scale 0 to 10, 0 no effect, 10 complete control): 0
Wheat plant response rating (wheat; [1]): 0
Wheat plant response rating (wheat; [2]): 0
Wheat plant response rating (wheat; [4]): 0
Wheat plant response rating (0 to 10 scale) (wheat; [14]): 0
Plant response rating, Wheat (wheat; [15]): 0
Wheat plant response rating (wheat; [7]): 0
Plant response rating, Wheat (wheat; [16]): 0
Wheat plant response rating (wheat; [8]): 0
Corn plant response rating (corn; [1]): 0
Corn plant response rating (corn; [2]): 0
Corn plant response rating (corn; [3]): 0
Corn plant response rating (corn; [4]): 0
Plant response rating, Corn (corn; [5]): 2
Plant response rating, Corn (corn; [6]): 3
Corn plant response rating (corn; [7]): 6
Corn plant response rating (corn; [8]): 0
Sugarbeets plant response rating (sugar beet; [1]): 2
Sugarbeets plant response rating (sugar beet; [2]): 2
Sugarbeets plant response rating (sugar beet; [4]): 0
Sugarbeets plant response rating (0 to 10 scale) (sugar beet; [14]): 0
Plant response rating, Sugarbeets (sugar beet; [15]): 0
Sugarbeets plant response rating (sugar beet; [7]): 2
Plant response rating, Sugarbeets (sugar beet; [16]): 2
Sugarbeets plant response rating (sugar beet; [8]): 3
Giant foxtail plant response rating (giant foxtail; [1]): 0
Giant foxtail plant response rating (giant foxtail; [2]): 0
Giant foxtail plant response rating (giant foxtail; [3]): 5
Giant foxtail plant response rating (giant foxtail; [4]): 8
Plant response rating, Giant foxtail (giant foxtail; [5]): 9
Plant response rating, Giant foxtail (giant foxtail; [6]): 9
Giant foxtail plant response rating (giant foxtail; [7]): 10
Giant foxtail plant response rating (giant foxtail; [8]): 8
Nutsedge plant response rating (purple nutsedge; [1]): 0
Nutsedge plant response rating (purple nutsedge; [2]): 0
Nutsedge plant response rating (purple nutsedge; [3]): 0
Nutsedge plant response rating (purple nutsedge; [4]): 0
Plant response rating, Nutsedge (purple nutsedge; [5]): 0
Plant response rating, Nutsedge (purple nutsedge; [6]): 0
Nutsedge plant response rating (purple nutsedge; [7]): 0
Nutsedge plant response rating (purple nutsedge; [8]): 0
Wild oats plant response rating (wild oat; [1]): 0
Wild oats plant response rating (wild oat; [2]): 0
Wild oats plant response rating (wild oat; [4]): 0
Wild oats plant response rating (0 to 10 scale) (wild oat; [14]): 3
Plant response rating, Wild oats (wild oat; [15]): 4
Wild oats plant response rating (wild oat; [7]): 6
Plant response rating, Wild oats (wild oat; [16]): 0
Wild oats plant response rating (wild oat; [8]): 1
Morningglory plant response rating (morningglory; [1]): 10
Morningglory plant response rating (morningglory; [2]): 10
Morningglory plant response rating (morningglory; [3]): 10
Morningglory plant response rating (morningglory; [4]): 0
Plant response rating, Morningglory (morningglory; [5]): 0
Plant response rating, Morningglory (morningglory; [6]): 0
Morningglory plant response rating (morningglory; [7]): 0
Morningglory plant response rating (morningglory; [8]): 10
Blackgrass plant response rating (blackgrass; [1]): 0
Blackgrass plant response rating (blackgrass; [2]): 0
Blackgrass plant response rating (blackgrass; [3]): 3
Blackgrass plant response rating (blackgrass; [4]): 0
Plant response rating, Blackgrass (blackgrass; [5]): 1
Plant response rating, Blackgrass (blackgrass; [6]): 8
Blackgrass plant response rating (blackgrass; [7]): 9
Blackgrass plant response rating (blackgrass; [8]): 6
Velvetleaf plant response rating (velvetleaf; [1]): 0
Velvetleaf plant response rating (velvetleaf; [2]): 0
Velvetleaf plant response rating (velvetleaf; [4]): 0
Velvetleaf plant response rating (0 to 10 scale) (velvetleaf; [14]): 0
Plant response rating, Velvetleaf (velvetleaf; [15]): 0
Velvetleaf plant response rating (velvetleaf; [7]): 3
Plant response rating, Velvetleaf (velvetleaf; [16]): 4
Velvetleaf plant response rating (velvetleaf; [8]): 6
S. Flatsedge plant response rating (smallflower flatsedge; [9]): 0
S. Flatsedge plant response rating (smallflower flatsedge; [1]): 0
S. Flatsedge plant response rating (smallflower flatsedge; Pre-emergence, Rate 1000 g/ha, scale 0 to 10 (0 no effect, 10 complete control)): 0
Plant response rating, S. Flatsedge (smallflower flatsedge; Rate 250 g/ha, Postemergence (flood test), scale 0 to 10, 0 is no effect, 10 is complete control): 0
S. Flatsedge plant response rating (smallflower flatsedge; [10]): 0
Plant response rating, S. Flatsedge (smallflower flatsedge; [11]): 0
S. Flatsedge plant response rating (smallflower flatsedge; [12]): 9
S. Flatsedge plant response rating (smallflower flatsedge; [13]): 8
Cocklebur plant response rating (cocklebur; [1]): 0
Cocklebur plant response rating (cocklebur; [2]): 1
Cocklebur plant response rating (cocklebur; [3]): 1
Cocklebur plant response rating (cocklebur; [4]): 0
Plant response rating, Cocklebur (cocklebur; [5]): 0
Plant response rating, Cocklebur (cocklebur; [6]): 0
Cocklebur plant response rating (cocklebur; [8]): 3
Crabgrass plant response rating (crabgrass; [1]): 3
Crabgrass plant response rating (crabgrass; [2]): 3
Crabgrass plant response rating (crabgrass; [3]): 8
Crabgrass plant response rating (crabgrass; [4]): 3
Plant response rating, Crabgrass (crabgrass; [5]): 3
Plant response rating, Crabgrass (crabgrass; [6]): 6
Crabgrass plant response rating (crabgrass; [7]): 10
Crabgrass plant response rating (crabgrass; [8]): 9
B. signalgrass plant response rating (surinam grass; [1]): 0
B. signalgrass plant response rating (surinam grass; [3]): 0
B. signalgrass plant response rating (surinam grass; [4]): 0
Plant response rating, B. signalgrass (surinam grass; [5]): 1
Plant response rating, B. signalgrass (surinam grass; [6]): 1
B. signalgrass plant response rating (surinam grass; [7]): 5
B. signalgrass plant response rating (surinam grass; Rate 125 g/ha, Postemergence, scale 0 to 10, 0 no effect, 10 complete control): 0
B. signalgrass plant response rating (surinam grass; Rate 500 g/ha, Postemergence, scale of 0 to 10 where 0 is no effect and 10 is complete control): 2
Soybean plant response rating (soybean; [1]): 5
Soybean plant response rating (soybean; [2]): 5
Soybean plant response rating (soybean; [4]): 0
Plant response rating, Soybean (soybean; [5]): 0
Plant response rating, Soybean (soybean; [6]): 0
Soybean plant response rating (soybean; [7]): 0
Plant response rating, Soybean (soybean; Rate 250 g/ha, Postemergence, scale 0 to 10, 0 is no effect, 10 is complete control): 5
Soybean plant response rating (soybean; [8]): 5

Reference: US6737383B1, “Herbicidal oxadiazolidines” (priority 1999, dated 2004)
